Experimental data published in EP1992346A1, “PHARMACEUTICAL COMPOSITIONS CONTAINING COMBINED PLATELET AGGREGATION INHIBITING SUBSTANCES FOR USE IN THE TREATMENT AND PREVENTION OF ISCHEMIC VASCULAR EVENTS” (WORLD-TRADE IMPORT-EXPORT, WTIE, A.G., priority 2005, dated 2007).

Legend:
[1] = cited from earlier work
[2] = cited from earlier work; remark: listed apart in the source
platelet aggregation = conditions: cited from earlier work
[3] = tested on: U46619-induced platelet aggregation; conditions: double blind, 10-day study, 20 healthy volunteers; plasma rich in platelets
Method: It was a double blind, 10-day duration study that was performed in 20 healthy volunteers with an age ranging from 26 to 40 years old. The platelet activation was measured by changes in light transmission of plasma rich in platelets stimulated by a synthetic analogue of TXA2, U46619.

[4] = radioactively marked Clopidogrel, within a five-day period

COC(=O)[C@H](c1ccccc1Cl)N1CCc2sccc2C1 [Clopidogrel]
time to maximum plasmatic concentrations of primary metabolite ([1]; after a dose of 75 mg): one
plasmatic half-life ([1]; in vivo): about 8 hours
inactive primary metabolite (carboxylic acid) as share of metabolites circulating in the plasma ([1]; oral): about 85%
absorption ([1]; oral, not significantly affected by food): 50%
eliminated through feces [1, 4]: 46%
eliminated through urine [1, 4]: About 50%
plasmatic concentrations of the unaltered drug ([1]; two hours after an oral dose): no longer detectable
reversibly bound to plasmatic proteins [2]: 98%
time for platelet aggregation and bleeding-time to return to basal level (platelet aggregation; after the treatment discontinuation): five
platelet aggregation inhibited (platelet aggregation; in balanced conditions, 75 mg per day): 40-60%
activity in vitro (platelet aggregation; in vitro, requires hepatic activation): inactive in vitro
time to maximum inhibition of platelet aggregation (platelet aggregation; iterative doses of 75 mg per day): 3 to 7 days
inhibition of platelet aggregation (platelet aggregation; two hours after a single oral dose): already observed an inhibition of platelet aggregation
U46619 stimulated platelet aggregation [3]: significantly inhibited
